The test system of test [1] is Rat pulmonary arterial endothelial cells (PAECs). Kind of test: PAEC apoptosis assay (Annexin V flow cytometry, with or without macrophage co-culture). The class given is cell-based. The following applies: for PAEC apoptosis induced by exogenous leukotriene (no macrophages): 24 hrs. On the procedure:
The transwell assay involved co-culturing IMØs from several sources with PAECs. IMØs, from (A) DMSO and (B) SU rat lungs, were isolated and co-cultured with PAECs. After 24 hr, PAEC apoptosis was analyzed by flow cytometry for Annexin V expression. To isolate the specific impact of LTB4 generated by 5-LO activation further, IMØs were extracted from healthy rats and transfected with S271E to produce a phosphorylation mimic mutant or with S271A to produce a dephosphorylation mimic mutant. Vector and WT 5-LO DNA-transfected IMØs were used as controls. Flow cytometry was performed on PAECs co-cultured with IMØs extracted from healthy rats and transfected with (C) vector as control, (D) WT 5-LO, (E) S271A, (F) S271E (G) S271E mutant treated with n-acetyl cysteine (NAC) (200 nM) or (H) S271A mutant treated with LTB4 (100 nM). PAECs were treated with (I) exogenous LTB4 (200 nM) or (J) LTB4 (200 nM) with a BLT1 inhibitor U75302 […] (n=3 experiments per group). Representative flow cytometry plots are shown, n=3 experiments per group.
The results reported in this example were obtained using the following PAEC apoptosis assay. Rat pulmonary arterial endothelial cells (PAECs) were co-cultured with macrophages (+/− transfection) for 24 hr. They were then washed once with PBS and once with binding buffer from the Annexin V Apoptosis Detection Kit (88-8007; eBioscience). Cells were then suspended in binding buffer at 1-5×10^6/ml. 5 μl of APC conjugated Annexin V was added to 100 μl of cells, which were then incubated at room temperature for 15 min. Five μl of propidium iodide staining solution were added 5 min. prior to flow cytometry analysis on an LSRFortessa cell analyzer (BD Biosciences).

Another test deals with athymic rat model of PAH. Kind of test: SU5416 athymic nude rat model of PAH (PH). In kind it is in vivo. The conditions noted are these: for reversal of established PH / PH-related death: treatment started 21 days (3 wk) after SU5416, doses as in b355, assessed at wk 5. How it is done: In the model, PH was first initiated by a single injection of a VEGFR2 inhibitor, SU5416, and monitored by weekly echocardiography. Survival of the animals was recorded on daily basis. […] After 5 weeks (day 35), animals were sacrificed after right heart catheterization. […] Oral availability of ubenimex was determined by pharmacokinetic analysis.
The athymic nude rat model is an accepted model of severe PAH associated with immune dysregulation. Athymic nude rats (rnu/rnu) (Charles River Laboratories) were used for these studies. Six to eight week old animals were injected subcutaneously (s.c.) with a single dose of either SU5416 (SU) (10 mg/kg) dissolved in DMSO or DMSO (vehicle) alone. All animals were maintained in normoxic conditions. PH progression was monitored by weekly echocardiography (ECHO). Survival of rats was monitored out to wk 5 when they underwent a terminal right heart catheterization. PH was confirmed by ECHO. Hemodynamic measurements included right ventricular systolic pressure (RVSP) determined by right heart catheterization and right ventricular hypertrophy (RVH) determined by the weight ratio of RV/(LV+S) (right ventricle/(left ventricle+septum)).
All animals were sacrificed 5 wk after SU administration for hemodynamic measurements. […] Serial improvement was observed from the time of treatment initiation. Interval improvement was manifested by decreasing RV wall thickness and increasing pulmonary artery acceleration times (PAAT) after initiation of treatment. […] Here again, the compound of Formula III was notable: treatment with that compound yielded an RVH ratio of 0.29. RVH for healthy rats is generally about 0.25.

The next test concerns the target T1, Recombinant human LTA4H (Homo sapiens, UniProt P09960).
T1 sequence (P09960 1-611): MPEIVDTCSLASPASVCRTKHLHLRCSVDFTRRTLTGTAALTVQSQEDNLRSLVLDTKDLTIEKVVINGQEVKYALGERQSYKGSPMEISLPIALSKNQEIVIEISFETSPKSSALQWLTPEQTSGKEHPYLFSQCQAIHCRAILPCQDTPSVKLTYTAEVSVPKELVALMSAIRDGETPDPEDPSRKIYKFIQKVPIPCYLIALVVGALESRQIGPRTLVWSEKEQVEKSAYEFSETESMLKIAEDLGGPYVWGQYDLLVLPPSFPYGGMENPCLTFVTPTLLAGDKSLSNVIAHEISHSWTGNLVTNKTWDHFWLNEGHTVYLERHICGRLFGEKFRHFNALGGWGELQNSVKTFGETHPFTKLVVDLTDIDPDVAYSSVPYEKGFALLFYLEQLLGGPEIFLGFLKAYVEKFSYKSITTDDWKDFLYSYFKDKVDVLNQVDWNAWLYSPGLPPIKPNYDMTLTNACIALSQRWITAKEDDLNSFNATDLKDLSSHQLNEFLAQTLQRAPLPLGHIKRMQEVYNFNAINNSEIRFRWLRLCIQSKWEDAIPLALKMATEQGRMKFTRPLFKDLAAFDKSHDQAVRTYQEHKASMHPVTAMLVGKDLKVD
Kind of test: In vitro epoxide hydrolase activity assay (LTB4 EIA readout). In kind it is biochemical. The following applies: LTA4 substrate 0.13 μM. On the procedure: The LTA4H inhibitory activity of certain compounds in this invention was measured using an in vitro epoxide hydrolase activity assay. In this assay, an LTA4 substrate was first prepared from the methyl ester of LTA4 (Cayman Chemical), which was treated under nitrogen with […] of NaOH, at room temperature, for 40 min. The LTA4 substrate in its free acid form was kept frozen at −80° C. until use. Recombinant human LTA4H (36 ng) was incubated with various concentrations of test compounds for 10 min. at room temperature in assay buffer (0.1 M potassium phosphate, pH 7.4, 5 mg/ml fatty acid-free bovine serum albumin) in a volume of 200 μl. Then, the mixture was incubated with 25 μl of LTA4 substrate (final concentration, 40 ng/ml, 0.13 μM; final volume, 225 μl) for 30 min. at room temperature. The assay was terminated by diluting 20-fold with assay buffer. LTB4 production from each reaction was then assayed using the LTB4 EIA kit (catalog no. 520111, Cayman Chemical). The concentration of compound required for half-maximal inhibition of recombinant enzyme activity (IC50) was calculated by nonlinear regression using GraphPad Prism 4.0 (GraphPad Software Inc), one-site binding competition.

Molecules are shown by their SMILES. “Also recorded” adds a separate entry of the source.

For `CC(=O)N[C@@H](CS)C(=O)O` [n-acetyl cysteine], the “PAEC apoptosis in co-culture with S271E mutant macrophages” value in test [1] (NAC (200 nM)) is recorded as “no diminution of apoptosis”.

In the case of `CCCCC/C=C\C\C=C/C=C/C=C/[C@@H](SC[C@H](N)C(=O)NCC(=O)O)[C@@H](O)CCCC(=O)O` [LTD4, leukotriene D4], in test [1], the “PAEC apoptosis induced by exogenous leukotriene (no macrophages)” value (from here on “PAEC apoptosis induced … (no macrophages)”) is reported as “did not induce PAEC apoptosis”.

With `CCCCC/C=C\C\C=C/C=C/C=C/[C@@H](SC[C@H](N)C(=O)O)[C@@H](O)CCCC(=O)O` [LTE4, leukotriene E4], the “PAEC apoptosis induced … (no macrophages)” value in test [1] is given as “did not induce PAEC apoptosis”.

Take `Oc1ccc(C=Cc2cc(O)cc(O)c2)cc1` [resveratrol]: the “reversal of established PH / PH-related death” value with athymic rat model of PAH is listed as “did not attenuate PH or improve survival”.

What is called IC50 is the concentration that inhibits the measured activity by half. `CC(C)C[C@H](NC(=O)[C@@H](O)[C@H](N)Cc1ccc(Oc2nc3ccccc3s2)cc1)C(=O)O` [Formula III, (S)-2-((2S,3R)-3-amino-4-(4-(benzo[d]thiazol-2-yloxy)phenyl)-2-hydroxybutanamido)-4-methylpentanoic acid]: at Recombinant human LTA4H, the IC50 came out at 10 ± 5 nM. For the same molecule, in the test with athymic rat model of PAH (1 mg/kg p.o. daily, sacrificed 5 wk after SU), the RVSP is listed as 28 mm Hg. Besides, the RVH ratio in the test with athymic rat model of PAH (1 mg/kg p.o. daily, sacrificed 5 wk after SU, RV/(LV+S)) came to 0.29.

Regarding `CCCCCCCCCCCCC/C=C/[C@@H](O)[C@@H](N)COP(=O)(O)O` [SIP, sphingosine-1-phosphate], the “rescue of PAECs co-cultured with S271E cells” value in test [1] (exogenously added) is given as “able to rescue”.

Take `CC(=O)Oc1ccccc1C(=O)O` [aspirin]: the “reversal of established PH / PH-related death” value in the test on athymic rat model of PAH is recorded as “relatively less therapeutic”.

Consider `CCCCC/C=C\C[C@@H](O)/C=C/c1cccc(C[C@@H](O)CCCCO)n1` [U75302], for which, in test [1] (LTB4 (200 nM) with U75302, 24 hr), the “LTB4-mediated PAEC apoptosis” value is given as “prevented LTB4-mediated apoptosis”.

With `CC(=O)N[C@H](Cc1ccc(O)cc1)[C@H](O)C(=O)N[C@@H](CC(C)C)C(=O)O`, at Recombinant human LTA4H, the half-inhibitory concentration (IC50) is 13 ± 4 nM.

In the case of `COC(=O)[C@H](CC(C)C)NC(=O)[C@@H](O)[C@H](N)Cc1ccccc1` [ubenimex methy ester, (S)-methyl 2-((2S,3R)-3-amino-2-hydroxy-4-phenylbutanamido)-4-methylpentanoate], the IC50 on Recombinant human LTA4H was 54 ± 13 nM.

With `O=C(O)C1CCN(Cc2ccc(Oc3nc4ccccc4s3)cc2)CC1` [JNJ26993135, 1-[4-(benzothiazol-2-yloxy)-benzyl]-piperidine-4-carboxylic acid], in the test with athymic rat model of PAH (SU-treated athymic rats), the “accumulation of 5-LO expressing periarteriolar macrophages and B cells in lungs” value is “significantly reduced”; the “in vivo PAEC apoptosis” value is listed as “reduced”. For the same molecule, the “reversal of established PH / PH-related death” value in the test on athymic rat model of PAH was “efficacious in reversing severe PH and preventing PH-related death; also recorded: reverses established PH”.

On to `COC(=O)[C@H](CC(C)C)NC(=O)[C@@H](O)[C@@H](Cc1ccccc1)NC(C)=O` [mono-acryl ubenimex, (S)-methyl 2-((2S,3R)-3-acetamido-2-hydroxy-4-phenylbutanamido)-4-methylpentanoate], for which the IC50 at Recombinant human LTA4H was 94 ± 21 nM.

Regarding `CC(c1cc2ccccc2s1)N(O)C(N)=O` (centres unmarked) [zileuton, 1-[1-(1-benzothiophen-2-yl)ethyl]-1-hydroxyurea], the “reversal of established PH / PH-related death” value in the test with athymic rat model of PAH was “mildly attenuated pressures and prevented death”.

`COC(=O)[C@H](CC(C)C)NC(=O)[C@@H](O)[C@@H](Cc1ccc(Br)cc1)NC(C)=O` [mono-acyl ubenimex bromide, (S)-methyl 2-((2S,3R)-3-acetamido-4-(4-bromophenyl)-2-hydroxybutanamido)-4-methylpentanoate]: at Recombinant human LTA4H, the IC50 is 93 ± 16 nM.

With `CCCCC/C=C\C\C=C/C=C/C=C/[C@@H](SC[C@H](NC(=O)CC[C@H](N)C(=O)O)C(=O)NCC(=O)O)[C@@H](O)CCCC(=O)O` [LTC4, leukotriene C4], in test [1], the “PAEC apoptosis induced … (no macrophages)” value is on record as “did not induce PAEC apoptosis”.

As to `COC(=O)[C@H](CC(C)C)NC(=O)[C@@H](OC(C)=O)[C@@H](Cc1ccccc1)NC(C)=O` [di-acyl ubenimex, (S)-methyl 2-((2S,3R)-3-acetamido-2-acetoxy-4-phenylbutanamido)-4-methylpentanoate], the IC50 at Recombinant human LTA4H turned out to be 25 ± 18 nM.

On to `O=C(NC1CCCCC1)NC1CCCCC1` [dicyclohexyl urea], for which, in the test with athymic rat model of PAH, the “reversal of established PH / PH-related death” value is recorded as “relatively less therapeutic”.

Take `COC(=O)[C@H](CC(C)C)NC(=O)[C@@H](OC(C)=O)[C@@H](Cc1ccc(Br)cc1)NC(C)=O` [di-acyl ubenimex bromide, (S)-methyl 2-((2S,3R)-3-acetamido-2-acetoxy-4-(4-bromophenyl)butanamido)-4-methylpentanoate]: the IC50 at Recombinant human LTA4H is 40 ± 22 nM.

Turning to `CC(=O)N[C@H](Cc1ccc(O)cc1)[C@H](OC(C)=O)C(=O)N[C@@H](CC(C)C)C(=O)O`, the IC50 on Recombinant human LTA4H turned out to be 43 ± 11 nM.

(Values after patent US9861601B2 (The Board of Trustees of the Leland Stanford Junior …, priority 2012, dated 2018).)
